This is an account of results in patent US20060128688A1, “Asenapine for the treatment of schizophrenia in a patient with overweight or predisposition for overweight” (priority 2003, published 2006).

For data set [1] the following is noted: among atypical antipsychotics, literature review; cited from earlier work.
Data set [2] has as its system subjects with acute exacerbation of their schizophrenic illness. Description: Randomized double blind, fixed-dose 6-week trial: efficacy on disease symptoms (PANSS). Type of data set: in vivo, human. The settings on record: asenapine 5 mg twice a day sublingual, risperidone 3 mg twice daily, 6 weeks, compared with placebo.
[3] abbreviates: All-Subjects-Treated Group, baseline to day 42 or final day of treatment.

Molecules are shown by their SMILES. Several values for one entry are separate records, joined by “and”; a condition that tells them apart may be missing. Equal values may be shown once. Read-outs that look alike come from different tables or passages of the source.

For the molecule `Cc1cc2c(s1)Nc1ccccc1N=C2N1CCN(C)CC1` [olanzapine], the “weight gain associated with the drug” value in data set [1] is reported as “largest weight gains”.

For `Cc1nc2n(c(=O)c1CCN1CCC(c3noc4cc(F)ccc34)CC1)CCCC2` [risperidone, reference compound], the “efficacy in reducing the symptoms of schizophrenia” value in data set [2] is “significantly more effective than placebo”. For the same molecule, where the note is “All-Subjects-Treated Group”, the “number of subjects with greater than 10% weight gain from baseline” value worked out at 2. Besides, under setting [3], the “number of subjects (n) with clinically significant decrease of ≧7% from baseline in body weight” value was 1 and the “number of subjects (n) with clinically significant increase of ≧7% from baseline in body weight” value amounted to 8. Besides, the “weight gain associated with the drug” value in data set [1] is “modest weight changes that are not dose related”.

Consider `OCCOCCN1CCN(C2=Nc3ccccc3Sc3ccccc32)CC1` [quetiapine], for which the “weight gain associated with the drug” value in data set [1] was “smallest”.

On to `O=C1Cc2cc(CCN3CCN(c4nsc5ccccc45)CC3)c(Cl)cc2N1` [ziprasidone], for which, in data set [1], the “weight gain associated with the drug” value was “smallest”.

On to `CN1C[C@@H]2c3ccccc3Oc3ccc(Cl)cc3[C@H]2C1` (relative stereo) [asenapine, trans-5-chloro-2-methyl-2,3,3a,12b-tetrahydro-1H-dibenz[2,3:6,7]oxepino[4,5-c]pyrrole], for which the “efficacy in reducing the symptoms of schizophrenia” value in data set [2] is recorded as “significantly more effective than placebo”. The “number of subjects with greater than 10% weight gain from baseline” value (All-Subjects-Treated Group) is 1. In addition, under setting [3], the “number of subjects (n) with clinically significant decrease of ≧7% from baseline in body weight” value is listed as 0; the “number of subjects (n) with clinically significant increase of ≧7% from baseline in body weight” value came to 2; the “subjects with clinically significant decrease of ≧7% from baseline in body weight, %” value was found to be 0.0%; the “subjects with clinically significant weight gain (increase from baseline of ≧7%), %” value is 4% and 4.3%. Further, the “subjects with clinically significant weight gain (increase from baseline of ≧7%), %” value (All-Subjects-Treated Group, baseline to day 42 or final day of treatment, listed as Asenapine) was determined as 4.3%. The “increase in body weight from baseline” value (at end point, group result) came out at 0.5%. For the same molecule, the other side effects result (overall conclusion of the 6-week trial) is listed as “minimal other side effects”.
